The source made the active and inactive calls.
Assays:
[1] = molecular target: Mitogen-activated protein kinase kinase kinase kinase 4 (Homo sapiens, UniProt O95819); assay type: functional
[2] = molecular target: Glycogen synthase kinase-3 beta (Homo sapiens, UniProt P49841); assay type: functional;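 also: value comes from a broad kinome profiling panel, with GSK3B as the panel member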
[3] = molecular target: cAMP-dependent protein kinase catalytic subunit alpha (Homo sapiens, UniProt P17612); assay type: functional
[4] = molecular target: Cell division cycle 7-related protein kinase (Homo sapiens, UniProt O00311); assay type: functional;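 also: value obtained from a kinome-wide kinase panel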
[5] = molecular target: Interleukin-1 receptor-associated kinase 4 (Homo sapiens, UniProt Q9NWZ3); assay type: functional
[6] = molecular target: Homeodomain-interacting protein kinase 2 (Homo sapiens, UniProt Q9H2X6); assay type: functional;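 also: measured within a kinome-wide kinase profiling panel, HIPK2 being one panel member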
[7] = molecular target: Dual specificity protein kinase CLK4 (Homo sapiens, UniProt Q9HAZ1); assay type: functional
[8] = molecular target: Cyclin-dependent kinase 2 (Homo sapiens, UniProt P24941); assay type: functional;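 also: CDK2 measured as one member of a broad kinome profiling panel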
[9] = molecular target: Serine/threonine-protein kinase pim-1 (Homo sapiens, UniProt P11309); assay type: functional
[10] = molecular target: T1, Sentrin-specific protease 6 (Homo sapiens, UniProt Q9GZR1); assay: SAR Analysis of small molecule inhibitors of Sentrin-specific protease 6 (SENP6) using a Luminescent assay. [Related pubchem assays (depositor defined):AID2582, AID2599]; assay type: functional
T1 sequence (Q9GZR1 whole entry): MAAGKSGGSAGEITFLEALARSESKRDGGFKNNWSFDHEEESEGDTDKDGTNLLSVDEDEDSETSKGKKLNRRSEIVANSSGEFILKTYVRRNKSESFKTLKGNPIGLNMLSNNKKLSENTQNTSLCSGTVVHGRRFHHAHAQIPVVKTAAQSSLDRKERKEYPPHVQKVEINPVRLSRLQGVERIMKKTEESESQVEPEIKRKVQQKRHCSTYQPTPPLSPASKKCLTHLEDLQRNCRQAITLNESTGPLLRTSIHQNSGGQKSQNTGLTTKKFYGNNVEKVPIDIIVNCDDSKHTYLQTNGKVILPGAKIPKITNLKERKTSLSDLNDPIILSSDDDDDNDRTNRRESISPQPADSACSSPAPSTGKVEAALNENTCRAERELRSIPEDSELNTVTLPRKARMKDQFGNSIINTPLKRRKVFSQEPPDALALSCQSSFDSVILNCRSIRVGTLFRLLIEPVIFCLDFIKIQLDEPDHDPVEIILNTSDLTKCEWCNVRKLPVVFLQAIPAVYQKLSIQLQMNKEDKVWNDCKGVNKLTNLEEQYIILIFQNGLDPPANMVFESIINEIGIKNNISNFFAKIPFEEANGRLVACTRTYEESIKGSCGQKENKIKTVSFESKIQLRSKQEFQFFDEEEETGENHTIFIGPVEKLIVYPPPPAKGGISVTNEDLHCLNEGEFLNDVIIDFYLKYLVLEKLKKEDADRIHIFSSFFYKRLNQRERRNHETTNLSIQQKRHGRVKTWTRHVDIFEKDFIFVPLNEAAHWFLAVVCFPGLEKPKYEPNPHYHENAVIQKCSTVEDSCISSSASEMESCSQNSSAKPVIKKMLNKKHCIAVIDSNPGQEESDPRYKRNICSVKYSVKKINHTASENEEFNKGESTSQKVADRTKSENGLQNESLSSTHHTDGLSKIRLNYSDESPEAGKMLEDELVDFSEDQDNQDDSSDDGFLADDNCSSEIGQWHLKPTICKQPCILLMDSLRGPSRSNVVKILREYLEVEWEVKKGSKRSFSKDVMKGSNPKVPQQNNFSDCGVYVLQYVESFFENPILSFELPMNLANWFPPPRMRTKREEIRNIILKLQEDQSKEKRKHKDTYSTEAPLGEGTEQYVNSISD

Caspase-3 = molecular target: T2, Caspase-3 (Homo sapiens, UniProt P42574); assay: SAR Analysis of small molecule inhibitors of Sentrin-specific proteases (SENPs) using a Caspase-3 Selectivity assay. [Related pubchem assays (depositor defined):AID2540, AID2599, AID434973, AID489001]; assay type: functional
T2 sequence (P42574 whole entry): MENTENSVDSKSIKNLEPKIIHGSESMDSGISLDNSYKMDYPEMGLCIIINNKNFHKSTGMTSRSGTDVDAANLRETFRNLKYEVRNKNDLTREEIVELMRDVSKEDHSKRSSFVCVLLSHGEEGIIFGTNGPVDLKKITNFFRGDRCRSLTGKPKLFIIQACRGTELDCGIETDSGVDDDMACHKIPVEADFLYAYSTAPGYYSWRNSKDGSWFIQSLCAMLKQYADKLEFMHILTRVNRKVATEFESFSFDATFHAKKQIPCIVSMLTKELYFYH

[11] = molecular target: T3, Sentrin-specific protease 8 (Homo sapiens, UniProt Q96LD8); assay: SENP8 protease inhibitors, SAR follow-up, biochemical, luminescence (AID 504501); assay type: functional
T3 sequence (Q96LD8 whole entry): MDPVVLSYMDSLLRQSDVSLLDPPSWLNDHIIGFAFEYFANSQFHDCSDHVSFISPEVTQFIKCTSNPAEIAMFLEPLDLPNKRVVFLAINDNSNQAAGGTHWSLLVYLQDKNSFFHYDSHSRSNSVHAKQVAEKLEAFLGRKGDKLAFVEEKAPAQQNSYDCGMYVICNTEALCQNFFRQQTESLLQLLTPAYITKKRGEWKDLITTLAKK

[12] = molecular target: T4, Sentrin-specific protease 7 (Homo sapiens, UniProt Q9BQF6); assay: SENP7 protease inhibitors, SAR follow-up, biochemical, luminescence (AID 504497); assay type: functional
T4 sequence (Q9BQF6 whole entry): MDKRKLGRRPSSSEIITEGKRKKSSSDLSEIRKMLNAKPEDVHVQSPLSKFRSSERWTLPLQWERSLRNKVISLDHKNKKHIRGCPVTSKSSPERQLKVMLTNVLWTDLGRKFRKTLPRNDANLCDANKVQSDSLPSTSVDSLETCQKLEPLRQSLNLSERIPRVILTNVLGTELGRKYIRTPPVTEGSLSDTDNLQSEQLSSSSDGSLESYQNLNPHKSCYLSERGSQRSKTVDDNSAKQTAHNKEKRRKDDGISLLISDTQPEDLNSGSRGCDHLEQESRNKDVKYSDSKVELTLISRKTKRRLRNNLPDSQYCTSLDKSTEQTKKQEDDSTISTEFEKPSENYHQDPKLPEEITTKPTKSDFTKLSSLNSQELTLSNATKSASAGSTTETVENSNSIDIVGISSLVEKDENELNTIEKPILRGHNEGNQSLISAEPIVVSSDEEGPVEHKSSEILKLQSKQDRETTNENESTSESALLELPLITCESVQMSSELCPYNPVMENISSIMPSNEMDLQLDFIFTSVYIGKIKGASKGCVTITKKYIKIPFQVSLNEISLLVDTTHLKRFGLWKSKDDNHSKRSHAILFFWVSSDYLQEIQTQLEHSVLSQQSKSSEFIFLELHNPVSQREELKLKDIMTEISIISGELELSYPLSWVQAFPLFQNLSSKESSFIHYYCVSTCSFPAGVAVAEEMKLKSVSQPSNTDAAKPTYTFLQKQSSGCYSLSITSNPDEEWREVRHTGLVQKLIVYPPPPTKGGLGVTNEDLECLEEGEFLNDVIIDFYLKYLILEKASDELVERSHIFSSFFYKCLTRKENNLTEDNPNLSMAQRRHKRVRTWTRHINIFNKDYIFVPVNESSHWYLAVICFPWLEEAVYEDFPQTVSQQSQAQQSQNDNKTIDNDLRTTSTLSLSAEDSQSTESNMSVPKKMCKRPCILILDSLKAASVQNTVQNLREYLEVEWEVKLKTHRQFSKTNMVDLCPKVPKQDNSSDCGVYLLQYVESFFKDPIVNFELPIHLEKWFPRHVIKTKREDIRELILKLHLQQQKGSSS

[13] = molecular target: Leucine-rich repeat serine/threonine-protein kinase 2 (Homo sapiens, UniProt Q5S007); assay type: functional;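 also: value from a broad kinome-wide panel profiling study in which LRRK2 was one of the kinases tested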
[14] = molecular target: Tyrosine-protein kinase ABL1 (Homo sapiens, UniProt P00519); assay type: functional
Focal adhesion kinase 1 = Focal adhesion kinase 1 (Homo sapiens, UniProt Q05397); assay type: functional;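 also: measured as one member of a kinome panel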
Chain of Focal adhesion kinase 1 (Q05397 whole entry): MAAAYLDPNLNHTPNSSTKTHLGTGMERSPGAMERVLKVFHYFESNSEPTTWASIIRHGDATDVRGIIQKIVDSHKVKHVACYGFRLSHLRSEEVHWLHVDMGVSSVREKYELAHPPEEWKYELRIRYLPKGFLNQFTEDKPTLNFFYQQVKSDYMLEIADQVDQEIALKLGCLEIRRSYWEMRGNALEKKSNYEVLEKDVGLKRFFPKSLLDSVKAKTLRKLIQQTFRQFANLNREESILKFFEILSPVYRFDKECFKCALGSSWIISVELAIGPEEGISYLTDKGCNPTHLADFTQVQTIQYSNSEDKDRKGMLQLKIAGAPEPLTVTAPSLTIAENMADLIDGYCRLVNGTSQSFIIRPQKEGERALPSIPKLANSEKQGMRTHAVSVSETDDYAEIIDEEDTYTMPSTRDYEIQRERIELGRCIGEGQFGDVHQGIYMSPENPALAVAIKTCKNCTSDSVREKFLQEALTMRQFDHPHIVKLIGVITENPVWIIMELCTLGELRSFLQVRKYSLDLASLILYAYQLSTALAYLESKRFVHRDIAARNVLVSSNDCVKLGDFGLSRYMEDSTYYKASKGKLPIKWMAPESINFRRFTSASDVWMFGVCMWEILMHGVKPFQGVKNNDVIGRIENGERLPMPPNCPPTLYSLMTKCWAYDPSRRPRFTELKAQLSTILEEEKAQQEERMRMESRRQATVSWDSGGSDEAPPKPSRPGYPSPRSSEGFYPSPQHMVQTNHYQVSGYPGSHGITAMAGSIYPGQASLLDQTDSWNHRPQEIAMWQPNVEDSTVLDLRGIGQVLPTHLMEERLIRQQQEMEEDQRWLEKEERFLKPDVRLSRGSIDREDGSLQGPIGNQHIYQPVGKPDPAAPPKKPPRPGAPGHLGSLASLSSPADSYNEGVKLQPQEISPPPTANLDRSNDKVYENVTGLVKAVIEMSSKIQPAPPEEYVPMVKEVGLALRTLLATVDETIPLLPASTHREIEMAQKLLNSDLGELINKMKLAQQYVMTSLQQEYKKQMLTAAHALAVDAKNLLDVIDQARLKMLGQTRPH

[15] = molecular target: Tyrosine-protein kinase SYK (Homo sapiens, UniProt P43405); assay type: functional
[16] = molecular target: Fibroblast growth factor receptor 3 (Homo sapiens, UniProt P22607); assay type: functional
[17] = molecular target: Hepatocyte growth factor receptor (Homo sapiens, UniProt P08581); assay type: functional;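 also: kinase panel profiling across the kinome, with MET as the panel member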
Chain of Hepatocyte growth factor receptor (P08581 whole entry): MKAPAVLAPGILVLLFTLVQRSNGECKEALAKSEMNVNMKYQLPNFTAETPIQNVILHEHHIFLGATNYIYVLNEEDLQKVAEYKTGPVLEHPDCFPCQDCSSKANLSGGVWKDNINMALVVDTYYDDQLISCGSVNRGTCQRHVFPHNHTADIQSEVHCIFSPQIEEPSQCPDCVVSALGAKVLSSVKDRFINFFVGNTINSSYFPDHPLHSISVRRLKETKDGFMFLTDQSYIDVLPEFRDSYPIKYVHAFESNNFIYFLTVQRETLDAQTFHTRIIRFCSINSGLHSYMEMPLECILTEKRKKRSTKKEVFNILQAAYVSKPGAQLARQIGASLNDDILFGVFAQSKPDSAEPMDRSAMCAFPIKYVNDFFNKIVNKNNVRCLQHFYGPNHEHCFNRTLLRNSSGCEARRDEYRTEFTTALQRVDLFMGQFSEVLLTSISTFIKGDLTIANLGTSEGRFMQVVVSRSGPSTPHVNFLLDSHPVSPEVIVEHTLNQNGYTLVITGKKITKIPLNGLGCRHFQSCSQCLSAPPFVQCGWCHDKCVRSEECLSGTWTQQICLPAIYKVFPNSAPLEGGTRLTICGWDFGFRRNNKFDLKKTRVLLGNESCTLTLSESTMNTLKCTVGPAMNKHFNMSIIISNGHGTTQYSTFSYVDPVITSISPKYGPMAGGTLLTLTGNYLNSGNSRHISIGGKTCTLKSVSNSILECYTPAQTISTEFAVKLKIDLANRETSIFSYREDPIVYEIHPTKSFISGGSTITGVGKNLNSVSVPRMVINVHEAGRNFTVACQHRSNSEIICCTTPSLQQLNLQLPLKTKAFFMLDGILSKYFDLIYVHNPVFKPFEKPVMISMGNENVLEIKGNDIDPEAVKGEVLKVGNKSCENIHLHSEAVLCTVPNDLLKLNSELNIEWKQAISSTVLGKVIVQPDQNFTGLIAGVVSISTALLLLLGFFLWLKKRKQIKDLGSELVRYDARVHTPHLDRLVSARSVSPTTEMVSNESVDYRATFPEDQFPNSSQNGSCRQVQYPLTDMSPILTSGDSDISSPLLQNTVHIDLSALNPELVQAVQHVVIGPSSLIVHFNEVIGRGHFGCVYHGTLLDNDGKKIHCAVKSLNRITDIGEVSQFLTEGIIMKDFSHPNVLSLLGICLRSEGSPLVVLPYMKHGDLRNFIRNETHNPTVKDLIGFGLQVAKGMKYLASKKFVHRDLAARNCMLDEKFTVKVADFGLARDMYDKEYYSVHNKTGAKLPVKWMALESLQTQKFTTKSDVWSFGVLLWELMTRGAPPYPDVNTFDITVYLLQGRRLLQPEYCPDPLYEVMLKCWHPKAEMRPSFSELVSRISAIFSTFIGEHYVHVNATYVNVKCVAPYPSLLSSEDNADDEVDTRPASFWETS

[18] = molecular target: Insulin-like growth factor 1 receptor (Homo sapiens, UniProt P08069); assay: Navigating the Kinome. Panel member name: IGF1R; assay type: functional
[19] = microbe, parasite or virus in culture; assay type: functional; settings: Mycobacterium tuberculosis
[20] = Vero cell cytotoxicity, cytotoxicity control for M. tuberculosis inhibitor project, purified and synthesized samples, set 3 (AID 504684); assay type: functional
[21] = A Cell Based Secondary Assay to Explore Cytotoxicity in HepG2 Cells of Compounds that Modulate Mycobacterium tuberculosis in Media Containing Glycerol versus Media without Glycerol (2).; assay type: functional
[22] = HIV-1 Env-mediated cell fusion inhibitors, dose response, CCR5-tropic Env (AID 2279); assay type: functional
[23] = A Cell Based Secondary Assay to Explore Cytotoxicity in THP-1 Cells of Compounds that Modulate Mycobacterium tuberculosis in Media Containing Glycerol versus Media without Glycerol (2).; assay type: functional
[24] = molecular target: DNA dC->dU-editing enzyme APOBEC-3A (Homo sapiens, UniProt P31941); assay: SAR analysis of small molecule inhibitors of APOBEC3A DNA Deaminase via a fluorescence-based single-stranded DNA deaminase assay.; assay type: functional; settings: read-out: IC50_Mean
Chain of DNA dC->dU-editing enzyme APOBEC-3A (P31941 whole entry): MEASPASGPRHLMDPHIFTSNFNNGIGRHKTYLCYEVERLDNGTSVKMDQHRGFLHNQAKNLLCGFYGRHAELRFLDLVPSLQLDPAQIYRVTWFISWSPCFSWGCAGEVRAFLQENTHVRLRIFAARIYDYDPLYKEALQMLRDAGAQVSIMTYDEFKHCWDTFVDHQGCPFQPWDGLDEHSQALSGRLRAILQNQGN

[25] = molecular target: DNA dC->dU-editing enzyme APOBEC-3G (Homo sapiens, UniProt Q9HC16); assay: APOBEC3G deaminase inhibitors, SAR follow-up, biochemical, fluorescence, single-stranded DNA substrate (AID 602136); assay type: functional; settings: read-out: IC50_Mean
Chain of DNA dC->dU-editing enzyme APOBEC-3G (Q9HC16 whole entry): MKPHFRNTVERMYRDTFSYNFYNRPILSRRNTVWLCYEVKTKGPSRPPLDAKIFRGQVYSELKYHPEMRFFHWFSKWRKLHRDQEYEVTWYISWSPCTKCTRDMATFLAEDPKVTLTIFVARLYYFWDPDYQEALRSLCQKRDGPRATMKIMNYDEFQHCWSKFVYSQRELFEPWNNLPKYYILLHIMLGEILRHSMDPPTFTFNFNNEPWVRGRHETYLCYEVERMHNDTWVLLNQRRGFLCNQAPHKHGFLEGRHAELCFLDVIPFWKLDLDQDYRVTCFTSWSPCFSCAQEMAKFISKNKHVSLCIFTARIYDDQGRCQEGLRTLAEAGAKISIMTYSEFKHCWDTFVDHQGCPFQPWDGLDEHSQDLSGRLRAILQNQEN

[26] = molecular target: T5, Neuropeptides B/W receptor type 1 (Homo sapiens, UniProt P48145); assay: GPR7 antagonist potency, late-stage follow-up, cell-based, fluorescence, dose response, set 6 (AID 588583); assay type: functional
T5 sequence (P48145 whole entry): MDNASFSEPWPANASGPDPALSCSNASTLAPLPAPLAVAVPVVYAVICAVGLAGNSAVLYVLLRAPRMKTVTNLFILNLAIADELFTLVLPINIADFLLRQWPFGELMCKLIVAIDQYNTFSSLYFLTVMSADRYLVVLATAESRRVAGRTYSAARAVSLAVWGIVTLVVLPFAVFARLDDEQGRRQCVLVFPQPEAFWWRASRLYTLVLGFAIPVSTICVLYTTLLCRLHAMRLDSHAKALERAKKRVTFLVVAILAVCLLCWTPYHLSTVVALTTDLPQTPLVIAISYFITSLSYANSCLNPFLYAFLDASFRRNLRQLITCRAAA

[27] = molecular target: T6, Melanin-concentrating hormone receptor 1 (Homo sapiens, UniProt Q99705); assay: Late-stage fluorescence-based counterscreen for antagonists of the G-protein coupled receptor 7 (GPR7): cell-based dose response assay to identify antagonists of the melanin-concentrating hormone receptor 1 (MCHR1) Set 6.; assay type: functional
T6 sequence (Q99705 whole entry): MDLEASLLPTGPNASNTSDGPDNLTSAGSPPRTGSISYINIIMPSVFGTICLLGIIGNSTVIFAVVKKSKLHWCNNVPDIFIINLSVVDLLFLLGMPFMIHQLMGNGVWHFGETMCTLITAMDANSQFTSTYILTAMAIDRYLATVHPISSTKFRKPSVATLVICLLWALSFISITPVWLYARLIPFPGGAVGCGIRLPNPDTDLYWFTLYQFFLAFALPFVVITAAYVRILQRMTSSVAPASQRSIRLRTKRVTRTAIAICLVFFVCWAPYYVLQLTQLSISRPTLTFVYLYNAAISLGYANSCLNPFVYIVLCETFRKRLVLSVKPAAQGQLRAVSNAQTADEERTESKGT

Misshapen-like kinase 1 = Misshapen-like kinase 1 (Homo sapiens, UniProt Q8N4C8); assay type: functional;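 also: kinome panel screen with MINK as the panel member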
[28] = molecular target: Protein kinase C delta type (Homo sapiens, UniProt Q05655); assay type: functional
[29] = nonselective inhibitors of cellular cAMP signaling, dose response, counter-screen for MC4R biased antagonist project, cell-based, TR-FRET cAMP detection (AID 602305); assay type: functional;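 also: U2OS cells stimulated with forskolin near its EC80 as the cAMP inducer; potency is for inhibition of forskolin-stimulated cAMP signaling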
[30] = cytotoxicity in HEK-293T cells, dose response, cytotoxicity control for BCR NF-kB inhibitor project, luminescence, B-cell screen hits (AID 489021); assay type: functional, cell-based;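 also: HEK-293T cells carrying an NF-kB luciferase reporter; cells exposed to compound for about 14 hours before viability readout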
Melanocortin receptor 4 = Melanocortin receptor 4 (Homo sapiens, UniProt P32245); assay: MC4R antagonist potency on cAMP, dose response, cell-based, TR-FRET, biased antagonists (AID 602298); assay type: functional;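 also: antagonist potency against agonist-stimulated cAMP production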
[31] = molecular target: T5, Neuropeptides B/W receptor type 1; assay: GPR7 antagonist potency, late-stage follow-up, cell-based, fluorescence, dose response, set 5 (AID 588566); assay type: functional
[32] = molecular target: T6, Melanin-concentrating hormone receptor 1; assay: Late-stage fluorescence-based counterscreen for antagonists of the G-protein coupled receptor 7 (GPR7): cell-based dose response assay to identify antagonists of the melanin-concentrating hormone receptor 1 (MCHR1) Set 5.; assay type: functional
[33] = molecular target: Benomyl/methotrexate resistance protein (Candida albicans, UniProt P28873); assay: CaMdr1 efflux pump inhibitor potency, dose response, singleplex, Cherry Pick2 set (AID 623992); assay type: functional; settings: read-out: EC50_MICROM

Chain of Mitogen-activated protein kinase kinase kinase kinase 4 (O95819 whole entry): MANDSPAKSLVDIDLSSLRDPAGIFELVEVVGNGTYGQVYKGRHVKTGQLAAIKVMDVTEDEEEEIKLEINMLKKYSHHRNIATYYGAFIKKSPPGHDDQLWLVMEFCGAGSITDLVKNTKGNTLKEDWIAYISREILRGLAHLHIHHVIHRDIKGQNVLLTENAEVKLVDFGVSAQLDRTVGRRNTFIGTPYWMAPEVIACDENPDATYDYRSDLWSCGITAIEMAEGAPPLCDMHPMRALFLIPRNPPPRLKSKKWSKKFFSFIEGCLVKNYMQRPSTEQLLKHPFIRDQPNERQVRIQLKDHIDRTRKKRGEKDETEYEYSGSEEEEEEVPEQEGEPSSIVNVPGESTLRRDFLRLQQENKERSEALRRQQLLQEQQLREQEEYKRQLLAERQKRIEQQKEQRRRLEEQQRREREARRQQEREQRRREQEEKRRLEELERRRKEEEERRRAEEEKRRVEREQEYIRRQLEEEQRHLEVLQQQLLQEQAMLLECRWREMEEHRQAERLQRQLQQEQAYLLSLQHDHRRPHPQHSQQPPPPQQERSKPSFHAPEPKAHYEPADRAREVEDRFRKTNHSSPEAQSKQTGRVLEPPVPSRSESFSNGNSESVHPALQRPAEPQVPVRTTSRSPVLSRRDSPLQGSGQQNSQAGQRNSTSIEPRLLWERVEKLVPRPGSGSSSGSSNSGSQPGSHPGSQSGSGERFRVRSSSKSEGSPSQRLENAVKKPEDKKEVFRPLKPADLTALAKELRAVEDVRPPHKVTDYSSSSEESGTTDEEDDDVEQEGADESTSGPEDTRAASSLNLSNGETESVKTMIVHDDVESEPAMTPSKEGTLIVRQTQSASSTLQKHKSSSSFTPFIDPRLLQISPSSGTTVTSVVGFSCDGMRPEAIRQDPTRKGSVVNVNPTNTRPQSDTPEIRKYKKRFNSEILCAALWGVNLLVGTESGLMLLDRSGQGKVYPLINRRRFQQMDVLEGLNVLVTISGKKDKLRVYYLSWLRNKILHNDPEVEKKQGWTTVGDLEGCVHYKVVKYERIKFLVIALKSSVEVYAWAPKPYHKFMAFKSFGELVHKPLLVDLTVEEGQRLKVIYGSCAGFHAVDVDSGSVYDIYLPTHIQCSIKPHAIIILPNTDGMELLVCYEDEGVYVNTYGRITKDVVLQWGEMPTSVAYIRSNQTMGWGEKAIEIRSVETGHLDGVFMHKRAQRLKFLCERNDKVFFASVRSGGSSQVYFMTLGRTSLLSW

O=c1cc(-c2ccc(F)cc2)[nH]c2c(-c3ccc(F)cc3)cnn12
Ki [1]: > 10 µM (inactive) | Ki [2]: 0.501 µM (active) | Ki [3]: > 7.94 µM (inactive) | Ki [4]: 0.0501 µM (active) | Ki [5]: > 10 µM (inactive) | Ki [6]: 0.2 µM (active) | Ki [7]: 0.158 µM (active) | Ki [8]: > 7.94 µM (inactive) | Ki [9]: 0.0501 µM (active)

Clc1ccc(N/N=C/c2c[nH]c3ccccc23)cc1
IC50 [10]: > 99 µM (inactive) | IC50 (Caspase-3): > 99 µM (inactive) | IC50 [11]: > 99 µM (inactive) | IC50 [12]: 57 µM (active)

c1ccc(CNc2nc(Nc3cc(C4CC4)[nH]n3)c3sccc3n2)cc1
Ki [13]: 0.01 µM (active) | Ki [14]: 0.01 µM (active) | Ki (Focal adhesion kinase 1): 0.00501 µM (active) | Ki [15]: 0.0126 µM (active) | Ki [16]: 0.00316 µM (active) | Ki [17]: 0.794 µM (active) | Ki [18]: 0.0794 µM (active)

CC(C)NC(=O)c1sc(=S)n2c1[nH]c(=O)c1ccc(C(=O)NCCc3ccc(Cl)cc3)cc12
CC50 [19]: > 40 µM (active) | CC50 [20]: > 100 µM (active) | CC50 [21]: > 50 µM (active) | IC50 [22]: 41.5 µM (active) | CC50 [23]: > 100 µM (active)

Cc1ccc(NC(=O)CCSc2nnc3scc(-c4ccccc4)n23)cc1
IC50 [24]: > 99 µM (inactive) | IC50 [25]: > 99 µM (inactive)

N#CC(c1c(F)cccc1F)c1c(Cl)cnn(Cc2cccc3ccccc23)c1=O (stereo not drawn)
IC50 [26]: 1.61 µM (active) | IC50 [27]: 1.61 µM (active)

CC(C)Oc1ccc(-c2noc(-c3ccc(OCC(O)CO)cc3)n2)cc1Cl (stereo not drawn)
Ki (Misshapen-like kinase 1): 6.31 µM (active) | Ki [1]: 2 µM (active) | Ki [28]: 7.94 µM (active)

O=C1NC[C@H](c2ccccc2)OC(=O)[C@@H](Cc2ccc(F)cc2)C/C=C\C[C@H]1CC(=O)N(CCO)Cc1ccccc1
IC50 [29]: > 64.6 µM (inactive) | IC50 [30]: 30.3 µM (inactive) | IC50 (Melanocortin receptor 4): > 64.6 µM (inactive)

COc1c(F)cc(Oc2c(Cl)cnn(Cc3cccc4ccccc34)c2=O)cc1F
IC50 [31]: 2.2 µM (active) | IC50 [32]: 7.43 µM (active)

O=C(c1ccc2c(c1)OCO2)N1CCC2(CC1)Oc1ccc(F)cc1C(=O)C21CC(c2ccccc2)=NO1 (stereo not drawn)
EC50 [33]: 9.25 µM (active)

Reference: ChEMBL document CHEMBL1201862, “PubChem BioAssay data set” (2004)
